≈ marks a conversion by molar mass, not a printed value.
Columns and labels:
[1] = dissolution in aqueous solution by adjusting the pH; type: physicochemical; conditions: pH of the aqueous solution adjusted to ~6.6 (6.5-6.7) or less
From the text: The natural pH of tear fluid is 7.4; however, discomfort for the user will not be felt as long as the pH of the administered medication stays in the range of 6.6-7.8 (Sampath Kumar et al., “Recent Challenges and Advances in Ophthalmic Drug Delivery System,” in The Pharma Innovation, Vol. 1, No. 4 (2012)). Others administer eye drops at a pH of 5.5 and find this pH to be optimal.

[2] = cited from earlier work
[3] = cited from earlier work; remark: listed apart in the source

dissolution in the aqueous solution [1]: fully dissolves
SMILES: OCCN(CCO)c1nc(N2CCCCC2)c2nc(N(CCO)CCO)nc(N3CCCCC3)c2n1 [Dipyridamole, dipyridamole]
water solubility ([2]; Meylan, W M ET AL. (1996)): 8.17 µg/mL (≈ 16.2 µM)
solubility in water ([2]; water): practically insoluble
solubility in methanol [3]: very soluble

Source: patent US10322129B2, “Therapeutic compositions containing dipyridamole, treatment packs and kits including such compositions and methods for producing same” (O.D. Ocular Discovery Ltd., priority 2015, dated 2019)
